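Cultured in 96-well plates, cells were exposed to test compound for 48 hours across five concentrations. TGI denotes the concentration required for complete inhibition of growth.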
Columns and labels:
Test in all cases: NCI anticancer screen, dose series, 48 h
CCRF-CEM leukemia = system: CCRF-CEM leukemia
HL-60(TB) leukemia = system: HL-60(TB) leukemia
OVCAR-4 ovarian = system: OVCAR-4 ovarian
OVCAR-5 ovarian = system: OVCAR-5 ovarian
SNB-75 CNS = system: SNB-75 CNS
UACC-62 melanoma = system: UACC-62 melanoma
UO-31 renal = system: UO-31 renal
HS 578T breast = system: HS 578T breast

Structure (SMILES)	TGI (CCRF-CEM leukemia)	TGI (HL-60(TB) leukemia)	TGI (OVCAR-4 ovarian)	TGI (OVCAR-5 ovarian)	TGI (SNB-75 CNS)	TGI (UACC-62 melanoma)	TGI (UO-31 renal)	TGI (HS 578T breast)
COc1ccc2c3c1OC1C(OC)(OC)CC4(C=C2)CN(C)CCC314 (stereo not given)	> 100 µM	> 100 µM	> 100 µM	> 100 µM	> 100 µM	> 100 µM	> 100 µM	
COC(=O)CNC(=O)CCC(C)[C@H]1CCC2C3C(C[C@H](OC(C)=O)[C@@]21C)[C@@]1(C)CCC2(C[C@H]1C[C@H]3OC(C)=O)OOC1(CCCCC1)OO2 (stereo not given in full)	5.02 µM	5.1 µM	3.66 µM	6.62 µM	5.3 µM	21.7 µM	3.3 µM	6.7 µM
COC(=O)C1(O)C(c2ccccc2)NC2(C)CCCC21 (stereo not given)	> 100 µM	> 100 µM	> 100 µM		> 100 µM	> 100 µM	> 100 µM	> 100 µM
O=[N+]([O-])C(C(Cl)=C(Cl)Cl)=C(n1cncn1)n1cncn1	22 µM		57 µM	22.9 µM	> 65.3 µM	> 100 µM	34.9 µM	> 64.1 µM
CN(C)N=Nc1ccc2[nH]c(=O)[nH]c2c1	> 100 µM	83.7 µM	> 100 µM	> 100 µM	> 100 µM	> 100 µM	> 100 µM	> 100 µM
C1=NCCOCCN=Cc2ccc(cc2)OCc2cccc(n2)COc2ccc1cc2	> 100 µM	> 100 µM	> 100 µM	> 100 µM	> 100 µM	> 100 µM	> 100 µM	> 100 µM
CNC(=S)/C(C#N)=C(\N)N1CCCC1	> 100 µM	> 100 µM		> 100 µM		> 100 µM	> 100 µM	> 100 µM
COc1cccc2cc(C(=O)NC34CC5CC(CC(C5)C3)C4)c(=N)oc12	> 65.2 µM	29.6 µM	> 100 µM	> 100 µM	> 100 µM	> 100 µM	7.63 µM	> 96.7 µM
N#Cc1c(-c2ccc([N+](=O)[O-])cc2)cc(-c2ccc(Nc3ccnc4cc(Cl)ccc34)cc2)nc1N	3.8 µM	26 µM	15.2 µM	45.6 µM	34.6 µM	> 64.1 µM	42.8 µM	29.9 µM
CC(C)=C[C@@H]1O[C@H](O)[C@@H]([C@H]2CC[C@@]3(C)[C@@H]4CC[C@H]5C(C)(C)C(=O)CC[C@@]56C[C@@]46CC[C@]23C)[C@@H]1O	24.1 µM	30.2 µM	35 µM	57.8 µM	32.5 µM	35.5 µM	28.6 µM	48.4 µM
CC12CCC(CC1(Cl)Cl)C2 (stereo not given)	> 100 µM	> 100 µM	> 100 µM	> 100 µM	> 100 µM	> 100 µM	> 100 µM	> 100 µM
O=C1C(Cl)=C(NCCF)C(=O)c2ncccc21	0.806 µM	> 10 µM		3.29 µM	2.6 µM	2.68 µM	2.6 µM	4 µM

Source: PubChem BioAssay (NCI)
